According to patent publication US11253565B2, “Nanoparticle ophthalmic composition for the treatment of ocular disorders or diseases” (Eye Pharma S.p.A., priority 2017, dated 2022):

Assays:
[1] = system: Sclerocorneal human trabecular meshwork cells (HTM cells); assay: MTT cell viability test on HTM cells with or without H2O2 oxidative damage; assay type: cell-based; settings: H2O2 only
Description: (§1) Commercially available endothelial cellular lines of sclerocorneal trabecular meshwork were used. Said lines undergone a physiological ageing lasted about 10 cycles of cellular replication, thus representing a validated in vitro model of sclerocorneal trabecular meshwork degeneration. Sclerocorneal human trabecular meshwork cells (HTM cells. ScienceCell Research Laboratories, CA, USA) were grown in a nutritional medium containing 10% v/v fetal bovine serum, 2 mM L-glutamine, penicillin (100 IU/mL) at 37° C. in the presence of 5% v/v CO2. Once cells were semi-confluent (80% covering of the plate surface), cells were collected by treatment with trypsin/EDTA and distributed in multiwell microplates at a density of 7×10^3 cells/well. Cells at 80% confluence were pre-treated for 30 minutes with 50 μL of eye drops with different polyphenolic concentration (0.15% Perilla frutescens extract in 0.25% sodium hyaluronate (high eye drops) compared with a 0.10% Perilla frutescens extract in 0.25% sodium hyaluronate (standard eye drops)). […]
At the end of the treatment, the culture medium was removed, and cell viability and genotoxic damage were evaluated. […]
In particular, cell viability was assessed using the metabolization test of 3-(4,5-dimethyithiazol-2-yl)-2,5-diphenyltetrazolium bromide (MTT). […] The results were analysed by ANOVA using the Statview statistic software.

HTM cells [2] = assay: Microscopic morphologic aspect of HTM cells in the different conditions of treatment; assay type: cell-based, human; settings: treatment with substance only
Description: as §1

HTM cells [3] = assay: Genotoxic damage (comet test) in HTM cells; assay type: cell-based, human; settings: treatment with substance only
Description: Commercially available endothelial cellular lines of sclerocorneal trabecular meshwork were used. Said lines undergone a physiological ageing lasted about 10 cycles of cellular replication, thus representing a validated in vitro model of sclerocorneal trabecular meshwork degeneration. Sclerocorneal human trabecular meshwork cells (HTM cells. ScienceCell Research Laboratories, CA, USA) were grown in a nutritional medium containing 10% v/v fetal bovine serum, 2 mM L-glutamine, penicillin (100 IU/mL) at 37° C. in the presence of 5% v/v CO2. […]
For the assessment of genotoxic damage, the comet test was used. […] In particular, the aspect of DNA fragmentation acquired by the comet test in HTM cells was evaluated. […] The images were then analysed at 400 magnifications by fluorescence microscope (Leica DMI 4000B) equipped with digital camera (Leica DFC 310 FX). For each slide a minimum of 100 nuclei were analysed by CASP imaging analysis system (Comet assay software project, http://www.casp.sourceforge.net). Single-strand and double-strand breaks were quantified in terms of “tail moment”, which is the product of the comet tail length multiplied by the total DNA fraction in the tail. […] The significance of differences among the various treatments was determined by ANOVA test.

[4] = Corneal permeabilization / bioavailability test on whole ox eye with fluoresceine tracer; assay type: in vitro ADME; settings: 30 minutes after application on anterior corneal surface
Description: The bioavailability was tested on whole ox eye (in vitro test) and on rabbit eyes (test in vivo) by applying the eye drops on the anterior corneal surface. A fluorescent tracer (fluoresceine) was added to the eye drops to follow the intraocular pharmacokinetics thereof. The transcorneal distribution of the std eye drops was evaluated by a slit lamp with determination of the fluorescence on both sides of the corneal membrane. A fluorescent tracer was added to the eye drops in order to follow the intraocular pharmacokinetics thereof. […] At the end of the prescribed time, its adsorption through the anterior chamber was assessed using a slit lamp. […] After the treatment, the fluid contained in the anterior chamber was collected and subjected to spectrofluorimetric analysis for the quantification of the tracer able to cross the corneal membrane. For the analysis, a […] spectrofluorometer (Hitachi, Tokyo, Japan) calibrated on specific fluorescence characteristics of fluoresceine (excitation 500 nm, emission 561 nm) was used. […] The ability of the std eye drops, both as such and in nanoparticle form, to pass the corneal membrane was thus determined by analysis del fluorescent track present in the fluid in the anterior chamber 30 minutes after the application of the preparation on the anterior corneal surface.

OO [H2O2]
cytopathic effect (MTT cell viability) [1]: substantial cytopathic effect | HTM cell morphology (HTM cells [2]): cells take a rounded shape, separate from the substrate and reflect the light | DNA damage / fragmentation (comet test) (HTM cells [3]): nuclei are massively dissolved with evident diffusion of the fragmented DNA

O=C1OC2(c3ccc(O)cc3Oc3cc(O)ccc32)c2ccccc21 [fluoresceine, fluorescein sodium]
fluorescent tracer in the fluid of the anterior chamber (spectrofluorimetry) [4]: conspicuous and specific positive signal
